In series [1] the test system is Various cell lines. Nature of the series: Pretreatment model (7+3 or 7+7) combination proliferation assay, cellular ATP luminescence, Loewe synergy. To be noted: several cell lines. Type of series: cell-based.
Protocol: Pretreatment model: Various cell lines were seeded in flasks at densities that ensured log-linear growth rates for the duration of the assay. […] Cultures were incubated in a humidified atmosphere of 5% CO2 at 37° C. for 4 days. On Day 4 cells were spun down, resuspended in fresh medium, counted and diluted to the original cell density in new flasks. […] Cells were then spun down on Day 7, re-suspended in fresh medium and plated to assay-ready 384 well plates with an automated multichannel dispenser. […] Compounds listed in Table 7 were dispensed with a HP-D300 nanoliter dispenser (Tecan, Mannedorf, Switzerland), with each plate containing 8 combination partners. Plates were then incubated for an additional three or seven days as noted in FIG. 1D to follow a 7+3 or 7+7 model (cell lines with slow growth characteristics were tested in a 7+7 model). Quantification of proliferation through measurement of cellular adenosine triphosphate (ATP) was performed via a luminescent cell viability assay and read on a plate reader with luminescence module. […]
Fa was calculated with the formula:
Fa=1−(Luminescence of test compound/Luminesence of untreated control)
The test system of series [2] is Human CD34+ progenitor cells. Briefly: Cell viability in the human CD34+ progenitors HbF induction assay. Type of series: cell-based. From the text:
An in-vitro system to test the ability of compound to induce fetal hemoglobin expression was developed. This system used Human CD34+ progenitor cells freshly isolated from healthy donors blood collections. Peripheral blood mononuclear cells (PBMCs) were isolated from whole blood by density gradient centrifugation using SepMatem-50 and Lymphoprep™ from Stem Cell Technologies. CD34^+ hematopoietic progenitor cells (HSPCs) were isolated from PBMCs by magnetic separation using Stem Cells Technologies CD34+ positive selection/isolation kit (Stem Cell Technologies, #18056). CD34 cells were cultured using a 2-phase 14 day culture system. During phase 1 (day 0 to day 7) cells were expanded. […] At day 14 cells were harvested for Fluorescent Activated Cell Sorting (FACS) analysis and for HbF quantitation by Mass spectrometry. […] Data was analyzed using FlowJo software. % HbF^+ cells and ratios H3/H3K9me2 intensities were calculated for CD71^+/CD235a^+ gated populations.
A list of pharmacological agents was evaluated for their potential to induce fetal Hemoglobin (HbF) in order to identify combination partners for our EHMT1/2 inhibitors. HbF can be induced by toxicity; therefore, the potential of the agents to induce HbF were evaluated in the context of cell viability. […] The EHMT1/2 inhibitor Compound 205 was evaluated in combination with a fixed dose of 10 μM Hydroxyurea and 0.1 μM Pomalidomide. […]

The structures appear in SMILES notation.

For `CNc1cc(C)nc(Nc2ccc(OC)c(OCCCN3CCCC3)c2)n1` [Compound 205], the “combination effect on proliferation (Loewe)” value is given as “synergy” in series [1] (Compound 205 and ATRA (FIG. 1B)); “synergy” in series [1] (Compound 205 and Venetoclax (FIG. 1C)). Also, the cell viability in series [2] (0.016 μM compound 205 in combination with 0.1 μM Pomalidomide) and in series [2] (0.016 μM compound 205 in combination with 10 μM Hydroxyurea) was more than 90% in each case.

These data come from patent US20240180880A1, “METHODS OF USING EHMT2 INHIBITORS IN TREATING OR PREVENTING BLOOD DISORDERS” (Epizyme, Inc., priority 2017, published 2024).
